These results are taken from patent publication US9180193B2, “Antiviral compounds” (Hoffmann-La Roche Inc., priority 2011, dated 2015).

For orientation: EC50 means the concentration at which the effect is half-maximal. Higher therefore signals lower potency in that assay. As usually defined, the CC50 is the concentration at which the toxic effect on the cells reaches its halfway point. A low value points to harm at low concentration.

Each structure is given as a SMILES string.

The subject of one data set is GT-1a pRLuc H77 1b 75 SI subgenomic replicon cell line (Huh7). The data set is described as follows: HCV GT-1a replicon luciferase reporter assay. Particulars: Hepatitis C virus, GT1A, Huh-7; Renilla luciferase reporter read 72 hours after compound addition; GT-1a H77 replicon cells. The data set is classed as cell-based. From the text: Determination of compounds HCV GT1b inhibitory replicon activity using the replicon luciferase reporter assay
The 2209-23 cell line was developed at Roche by stable transfection of the hepatoma cell line Huh-7 with a GT-1b Con1 subgenomic bicistronic replicon as previously described. Subgenomic replicon cell line was established in cured Huh7 cells, obtained from R. Bartenschlager (J Virol. 2003 March; 77 (5):3007-19) The GT-1a H77 subgenomic replicon vector pRLuc H77 lb 75 SI, was created by replacing the non structural region of the GT-1b Con1 subgenomic replicon by the one of the H77 strain, except for the first 75 amino acids of the NS3 protein that are from GT-1b Con1 strain. (J Virol. 2001 77:5352-59) The GT-1a pRLuc H77 1b 75 SI subgenomic replicon cell line was established in cured Huh7 cells, obtained from R. Bartenschlager. (J Virol. 2003 March; 77 (5):3007-19)
All the subgenomic replicon cell lines were cultured in Dulbecco's Modified Eagle Medium (DMEM-Glutamax™-I; Invitrogen Cat #10569-010). The medium was supplemented with 10% Fetal Bovine Serum (Invitrogen Cat #10082-147), 1% penicillin/streptomycin (Mediatech Cat #30-002-CI) and 500 μg/ml of G418 (Mediatech Cat #30-234-CI). Cells were maintained at 37° C. in a humidified 5% CO2 atmosphere.
2209-23 cells were plated at a cell density of 5000 cells per well in 96 well plates (Becton Dickinson, Cat #35 3296). Cells were plated in 90 μl of Dulbecco's Modified Eagle Medium (DMEM-Glutamax™-I), (Invitrogen Cat #10569-010) medium was supplemented with 5% Fetal Bovine Serum (Invitrogen Cat #10082-147), 1% penicillin/streptomycin (Mediatech Cat #30-002-CI). The pRluc H77 1b 75 SI cells were plated in 96-well plate at 3000 cells/well in DMEM-Glutamax™-I containing 5% FBS and 1% penicillin/streptomycin in 90 μl final volume. Cells were allowed to equilibrate for 24 hours at 37° C. and 5% CO2 at which time compounds were added. Compounds (or medium as a control) were added 24 hours post-plating in 3 fold dilutions at a final DMSO concentration of 1% in 10 ul volume. Renilla luciferase reporter signal was read 72 hours after addition of compounds using the Renilla Luciferase Assay System (Promega, cat # E2820). EC50 values were defined as the compound concentration at which a 50% reduction in the levels of renilla luciferase reporter was observed as compared to control samples in the absence of compound and was determined by non-linear fitting of compound dose-response data. The EC50 was approximated if maximum percentage inhibition was less than 90% and more than 70%.
(A replicon is a self-replicating genome or part of one, used to study replication in cells.)
For `COC(=O)N[C@H]1CCC(=O)N2CCC[C@@H](c3ncc(-c4ccc(-c5cnc6cc(-c7cnc([C@@H]8CCCN8C(=O)[C@@H](NC(=O)OC)C(C)C)[nH]7)ccc6n5)cc4)[nH]3)N2C1=O` [Compound I-4, ((4S,7S)-4-{5-[4-(6-{2-[(S)-1-((S)-2-Methoxycarbonylamino-3-methyl-butyryl)-pyrrolidin-2-yl]-3H-imidazol-4-yl}-quinoxalin-2-yl)-phenyl]-1H-imidazol-2-yl}-6,10-dioxo-octahydro-pyridazino[1,2-a][1,2]diazepin-7-yl)-carbamic acid methyl ester], the EC50 came out at 0.13 nM.
`COC(=O)N[C@H]1CCC(=O)N2CCC[C@@H](c3ncc(-c4ccc(-c5ccc(-c6cnc([C@@H]7CC(F)(F)CN7C(=O)[C@@H](NC(=O)OC)C(C)C)[nH]6)cc5)cc4)[nH]3)N2C1=O` [Compound I-5, {(4S,7S)-4-[5-(4′-{2-[(S)-4,4-Difluoro-1-((S)-2-methoxycarbonylamino-3-methyl-butyryl)-pyrrolidin-2-yl]-3H-imidazol-4-yl}-biphenyl-4-yl)-1H-imidazol-2-yl]-6,10-dioxo-octahydro-pyridazino[1,2-a][1,2]diazepin-7-yl}-carbamic acid methyl ester] displayed an EC50 of 0.92 nM.
Regarding `COC(=O)N[C@H]1CCC(=O)N2CCC[C@@H](c3nc4cc(-c5ccc(-c6cnc([C@@H]7CCCN7C(=O)[C@@H](NC(=O)OC)C(C)C)[nH]6)cc5)ccc4[nH]3)N2C1=O` [Compound I-2, {(4S,7S)-4-[5-(4-{2-[(S)-1-((S)-2-Methoxycarbonylamino-3-methyl-butyryl)-pyrrolidin-2-yl]-3H-imidazol-4-yl}-phenyl)-1H-benzoimidazol-2-yl]-6,10-dioxo-octahydro-pyridazino[1,2-a][1,2]diazepin-7-yl}-carbamic acid methyl ester], the response was half-maximal at 156 nM (EC50). Compared with the last molecule, the EC50 is about 170-fold higher.
`COC(=O)N[C@H]1CCC(=O)N2CCC[C@@H](c3ncc(-c4ccc(-c5ccc(-c6cnc(C7CC8(CCOCC8)CN7C(=O)[C@@H](NC(=O)OC)C(C)C)[nH]6)cc5)cc4)[nH]3)N2C1=O` (stereo partly drawn) [Compound I-6, {(4S,7S)-4-[5-(4′-{2-[2-((S)-2-Methoxycarbonylamino-3-methyl-butyryl)-8-oxa-2-aza-spiro[4.5]dec-3-yl]-3H-imidazol-4-yl}-biphenyl-4-yl)-1H-imidazol-2-yl]-6,10-dioxo-octahydro-pyridazino[1,2-a][1,2]diazepin-7-yl}-carbamic acid methyl ester] showed an EC50 of 1.5 nM.
The same measure, in the same setting: the value for `COC(=O)N[C@H]1CCC(=O)N2CCC[C@@H](c3ncc(-c4ccc(-c5ccc(-c6cnc([C@@H]7CCCN8C(=O)CC[C@H](NC(=O)OC)C(=O)N78)[nH]6)cc5)cc4)[nH]3)N2C1=O` [Compound I-1, [(4S,7S)-4-(5-{4′-[2-((1S,9S)-9-[(Methoxycarbonyl)amino]-6,10-dioxo-octahydro-pyridazino[1,2-a][1,2]diazepin-1-yl)-3H-imidazol-4-yl]-biphenyl-4-yl}-1H-imidazol-2-yl)-6,10-dioxo-octahydro-pyridazino[1,2-a][1,2]diazepin-7-yl]-carbamic acid methyl ester] was 10.6 nM; that for `COC(=O)N[C@H](C(=O)N1CCC[C@H]1c1ncc(-c2ccc(-c3ccc(-c4cnc([C@@H]5CCCN6C(=O)CC[C@H](NC(=O)OCc7ccccc7)C(=O)N56)[nH]4)cc3)cc2)[nH]1)C(C)C` [Compound I-3, {(4S,7S)-4-[5-(4′-{2-[(S)-1-((S)-2-Methoxycarbonylamino-3-methyl-butyryl)-pyrrolidin-2-yl]-3H-imidazol-4-yl}-biphenyl-4-yl)-1H-imidazol-2-yl]-6,10-dioxo-octahydro-pyridazino[1,2-a][1,2]diazepin-7-yl}-carbamic acid benzyl ester] was 2.95 nM.
Still for that read-out and setting: the same measure for `COC(=O)N[C@H]1CCC(=O)N2CCC[C@@H](c3ncc(-c4ccc(-c5ccc(-c6cnc([C@@H]7CCCN7C(=O)[C@@H](NC(=O)OC)C(C)C)[nH]6)cc5)cc4)[nH]3)N2C1=O` [Compound I-7, {(4S,7S)-4-[5-(4′-{2-[(S)-1-((S)-2-Methoxycarbonylamino-3-methyl-butyryl)-pyrrolidin-2-yl]-3H-imidazol-4-yl}-biphenyl-4-yl)-1H-imidazol-2-yl]-6,10-dioxo-octahydro-pyridazino[1,2-a][1,2]diazepin-7-yl}-carbamic acid methyl ester]: 1.1 nM.

System in another data set: not listed separately
The data set is described as follows: in vitro. Particulars: human. The data set is classed as cell-based. The protocol: Determination of Compounds Cytotoxicity Using the HCV GT1b Replicon Cell Line Measuring WST1.
2209-23 cells were plated at a cell density of 5000 cells per well in clear flat-bottom 96 well plate (Becton Dickinson, Cat #35 3075) for cell viability studies. The WST-1 cell proliferation assay (Roche Diagnostic, Cat#11644807001) was used to determine cell viability. Assay plates were set up in the same format as in the replicon assay. After 3 days of compound incubation 10 μl of WST-1 reagent was added to each well for 2 hours at 37° C. and 5% CO2, following manufacturer's instructions. Absorption reading at 450 nm (reference filter at 650 nm) was determined using MRX Revelation microtiter plate reader (Lab System). CC50 values were defined as the compound concentration required for reducing cell viability by 50% as compared to the untreated control in absence of compound and was determined by non-linear fitting of compound dose-response data. Representative assay data can be found in Table II below: […]
The molecule `COC(=O)N[C@H]1CCC(=O)N2CCC[C@@H](c3ncc(-c4ccc(-c5cnc6cc(-c7cnc([C@@H]8CCCN8C(=O)[C@@H](NC(=O)OC)C(C)C)[nH]7)ccc6n5)cc4)[nH]3)N2C1=O` [Compound I-4, ((4S,7S)-4-{5-[4-(6-{2-[(S)-1-((S)-2-Methoxycarbonylamino-3-methyl-butyryl)-pyrrolidin-2-yl]-3H-imidazol-4-yl}-quinoxalin-2-yl)-phenyl]-1H-imidazol-2-yl}-6,10-dioxo-octahydro-pyridazino[1,2-a][1,2]diazepin-7-yl)-carbamic acid methyl ester] registered a CC50 at 3 days of 8160 nM.
